Results: PubChem BioAssay AID248 (DTP/NCI, 2004)
Where “and” joins values, the source holds several entries; their conditions need not be identical. Identical values can stand only once. Inconclusive results and toxic doses are left out. Rule as the data show it: active = T/C of 150% or more; inactive = T/C below 125%.

Tested on: L1210 leukemia ip in BDF1 mice, survival T/C
Assay: NCI In Vivo Anticancer Drug Screen. Data for tumor model L1210 Leukemia (intraperitoneal) in B6D2F1 (BDF1) mice
Conditions: endpoint: mean survival time, higher = longer survival
How it was run: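 Tumor cells were implanted, animals were treated, and survival was followed. The result divides the treated measurement by the vehicle-control measurement.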

[1] = dose: 100.0 mg/kg/injection, schedule: Q01DX001 (ip), vehicle: carboxymethylcellulose (CMC)
[2] = dose: 200.0 mg/kg/injection, schedule: Q01DX001 (ip), vehicle: carboxymethylcellulose (CMC)
[3] = dose: 400.0 mg/kg/injection, schedule: Q01DX001 (ip), vehicle: carboxymethylcellulose (CMC)
[4] = dose: 50.0 mg/kg/injection, schedule: Q01DX001 (ip), vehicle: carboxymethylcellulose (CMC)
[5] = dose: 100.0 mg/kg/injection, schedule: Q01DX001 (ip), vehicle: saline
[6] = dose: 200.0 mg/kg/injection, schedule: Q01DX001 (ip), vehicle: saline
[7] = dose: 400.0 mg/kg/injection, schedule: Q01DX001 (ip), vehicle: saline
[8] = dose: 100.0 mg/kg/injection, schedule: Q04DX003 (ip), vehicle: Klucel (hydroxypropylcellulose) (HPC)
[9] = dose: 200.0 mg/kg/injection, schedule: Q04DX003 (ip), vehicle: Klucel (hydroxypropylcellulose) (HPC)
[10] = dose: 400.0 mg/kg/injection, schedule: Q04DX003 (ip), vehicle: Klucel (hydroxypropylcellulose) (HPC)
[11] = dose: 400.0 mg/kg/injection, schedule: Q01DX009 (ip), vehicle: Klucel (hydroxypropylcellulose) (HPC)

Measured: T/C

CC1([N+](=O)[O-])COP(=O)(Nc2cccc(Br)c2)OC1 (stereo unspecified)
inactive: [1] 96 % of control | [2] 94 % of control | [3] 100 % of control

CCCCCCCCCc1cc(=O)n(-c2ccc(C(=O)OCC)cc2)n1C
inactive: dose: 12.5 mg/kg/injection, schedule: Q04DX003 (ip), vehicle: Klucel (hydroxypropylcellulose) (HPC) 105 % of control | dose: 25.0 mg/kg/injection, schedule: Q04DX003 (ip), vehicle: Klucel (hydroxypropylcellulose) (HPC) 102 % of control | dose: 50.0 mg/kg/injection, schedule: Q04DX003 (ip), vehicle: Klucel (hydroxypropylcellulose) (HPC) 97 % of control

C1=CC(c2ccccc2)=C(c2ccccc2)C(c2ccccc2)C(c2ccccc2)=C1 (stereo unspecified)
inactive: [4] 94 % of control | [1] 96 % of control | [2] 96 % of control | [3] 89 % of control

CCN(CC)c1ccc(N)cc1
inactive: dose: 6.25 mg/kg/injection, schedule: Q01DX009 (ip), vehicle: saline with Tween-80 112 % of control | dose: 12.5 mg/kg/injection, schedule: Q01DX009 (ip), vehicle: saline with Tween-80 102 % of control | dose: 12.5 mg/kg/injection, schedule: Q04DX003 (ip), vehicle: saline with Tween-80 100 % of control | dose: 25.0 mg/kg/injection, schedule: Q01DX009 (ip), vehicle: saline with Tween-80 104 % of control | dose: 25.0 mg/kg/injection, schedule: Q04DX003 (ip), vehicle: saline with Tween-80 94 % of control

COc1ccc(C=NC(C)(C)CO)cc1
inactive: dose: 100.0 mg/kg/injection, schedule: Q01DX001 (ip), vehicle: steriod suspending solution 114 % of control | dose: 200.0 mg/kg/injection, schedule: Q01DX001 (ip), vehicle: steriod suspending solution 90 % of control | dose: 400.0 mg/kg/injection, schedule: Q01DX001 (ip), vehicle: steriod suspending solution 97 % of control

OCC1OC(n2c(Cl)nc3cc(Cl)c(Cl)cc32)C(O)C1O (stereo unspecified)
inactive: dose: 100.0 mg/kg/injection, schedule: Q01DX005 (ip), vehicle: saline 96 % of control | dose: 200.0 mg/kg/injection, schedule: Q01DX005 (ip), vehicle: saline 96 % of control

Cc1cc(C)c2c(C#N)cn(-c3ccc(Cl)cc3)c2n1
inactive: [5] 87 % of control | [6] 97 % of control | [7] 91 % of control

O=c1cc(N(Cc2ccccc2)Cc2ccccc2)[nH]c(=O)[nH]1
inactive: dose: 75.0 mg/kg/injection, schedule: Q01DX001 (ip), vehicle: Klucel (hydroxypropylcellulose) (HPC) 101 % of control | dose: 75.0 mg/kg/injection, schedule: Q01DX001 (ip), vehicle: saline with Tween-80 94 % of control | dose: 150.0 mg/kg/injection, schedule: Q01DX001 (ip), vehicle: Klucel (hydroxypropylcellulose) (HPC) 102 % of control | dose: 150.0 mg/kg/injection, schedule: Q01DX001 (ip), vehicle: saline with Tween-80 95 % of control | dose: 300.0 mg/kg/injection, schedule: Q01DX001 (ip), vehicle: Klucel (hydroxypropylcellulose) (HPC) 106 % of control | dose: 300.0 mg/kg/injection, schedule: Q01DX001 (ip), vehicle: saline with Tween-80 98 % of control

CC(C(=O)O)(c1ccccc1)c1ccccc1
inactive: dose: 100.0 mg/kg/injection, schedule: Q04DX002 (ip), vehicle: gum acacia 101 % of control | dose: 200.0 mg/kg/injection, schedule: Q04DX002 (ip), vehicle: gum acacia 96 % of control | dose: 400.0 mg/kg/injection, schedule: Q04DX002 (ip), vehicle: gum acacia 96 % of control

Cc1cc(C2C(O)C(c3cc(C)on3)C2(C)O)no1 (stereo unspecified)
inactive: dose: 100.0 mg/kg/injection, schedule: Q01DX001 (ip), vehicle: Klucel (hydroxypropylcellulose) (HPC) 98 % of control | [8] 103 % of control | dose: 200.0 mg/kg/injection, schedule: Q01DX001 (ip), vehicle: Klucel (hydroxypropylcellulose) (HPC) 98 % of control | [9] 97 % of control | dose: 400.0 mg/kg/injection, schedule: Q01DX001 (ip), vehicle: Klucel (hydroxypropylcellulose) (HPC) 97 % of control | [10] 103 % of control

CC12CCC(=O)C=C1CCC1C2CCC2(C)C(C(=O)COC(=O)Cc3ccc(N(CCCl)CCCl)cc3)CCC12 (stereo unspecified)
inactive: dose: 100.0 mg/kg/injection, schedule: Q01DX001 (sc), vehicle: steriod suspending solution 99 % of control | dose: 200.0 mg/kg/injection, schedule: Q01DX001 (sc), vehicle: steriod suspending solution 101 % of control | dose: 400.0 mg/kg/injection, schedule: Q01DX001 (sc), vehicle: steriod suspending solution 100 % of control | [11] 90 % of control

Nc1ccc2oc3cccc(N)c3c(=O)c2c1
inactive: [5] 94 % of control | [6] 96 % of control | [7] 96 % of control

Cc1cc(C)cc(C(O)(c2cc(C)cc(C)c2)c2cc(C)cc(C)c2)c1
inactive: dose: 100.0 mg/kg/injection, schedule: Q04DX003 (ip), vehicle: saline with Tween-80 102 % of control | dose: 200.0 mg/kg/injection, schedule: Q04DX003 (ip), vehicle: saline with Tween-80 116 % of control | dose: 400.0 mg/kg/injection, schedule: Q04DX003 (ip), vehicle: saline with Tween-80 94 % of control

COC(=O)C1=C(\N2CCCC2)CCCCC/C=C\1C(=O)OC
inactive: dose: 75.0 mg/kg/injection, schedule: Q01DX009 (ip), vehicle: saline with Tween-80 97 % of control | dose: 150.0 mg/kg/injection, schedule: Q01DX009 (ip), vehicle: saline with Tween-80 103 % of control | dose: 300.0 mg/kg/injection, schedule: Q01DX009 (ip), vehicle: saline with Tween-80 107 % of control

C#CC(C)(C)OCC(O)CCl (stereo unspecified)
inactive: dose: 100.0 mg/kg/injection, schedule: Q01DX009 (ip), vehicle: saline 96 % of control | dose: 100.0 mg/kg/injection, schedule: Q04DX003 (ip), vehicle: saline sonified 114 % of control | dose: 200.0 mg/kg/injection, schedule: Q01DX009 (ip), vehicle: saline 89 % of control | dose: 200.0 mg/kg/injection, schedule: Q04DX003 (ip), vehicle: saline sonified 109 % of control | dose: 400.0 mg/kg/injection, schedule: Q04DX003 (ip), vehicle: saline sonified 109 % of control

BrCCN(CCBr)c1ccc2c3c(cccc13)-c1ccccc1-2
inactive: dose: 0.3 mg/kg/injection, schedule: Q01DX Z (ip), vehicle: other 117 % of control | dose: 0.7 mg/kg/injection, schedule: Q01DX Z (ip), vehicle: other 120 % of control | dose: 1.5 mg/kg/injection, schedule: Q01DX Z (ip), vehicle: other 123 % of control | dose: 6.25 mg/kg/injection, schedule: Q01DX009 (ip), vehicle: acetone 112 % of control | dose: 7.5 mg/kg/injection, schedule: Q01DX Z (ip), vehicle: other 101 % of control | dose: 11.0 mg/kg/injection, schedule: Q01DX Z (ip), vehicle: other 112 % of control | [4] 124 % of control | [1] 114 % of control | dose: 100.0 mg/kg/injection, schedule: Q04DX003 (ip), vehicle: saline 120 % of control | [2] 124 % of control | [3] 120 % of control

CCCCCCCCCCCCCCCCNCC(=O)Nc1ccc(S(=O)(=O)c2ccc(NC(=O)CNCCCCCCCCCCCCCCCC)cc2)cc1
inactive: dose: 4.0 mg/kg/injection, schedule: Q01DX015 (ip), vehicle: carboxymethylcellulose (CMC) 94 % of control | dose: 8.0 mg/kg/injection, schedule: Q01DX015 (ip), vehicle: carboxymethylcellulose (CMC) 94 % of control | dose: 16.0 mg/kg/injection, schedule: Q01DX015 (ip), vehicle: carboxymethylcellulose (CMC) 104 % of control | dose: 32.0 mg/kg/injection, schedule: Q01DX015 (ip), vehicle: carboxymethylcellulose (CMC) 93 % of control and 101 % of control | dose: 64.0 mg/kg/injection, schedule: Q01DX015 (ip), vehicle: carboxymethylcellulose (CMC) 117 % of control | dose: 100.0 mg/kg/injection, schedule: Q01DX001 (ip), vehicle: other 89 % of control | dose: 200.0 mg/kg/injection, schedule: Q01DX001 (ip), vehicle: other 100 % of control

CCC(C)(C)c1cccc2ccccc12
inactive: dose: 100.0 mg/kg/injection, schedule: Q01DX009 (ip), vehicle: Klucel (hydroxypropylcellulose) (HPC) 96 % of control | [8] 102 % of control | dose: 200.0 mg/kg/injection, schedule: Q01DX009 (ip), vehicle: Klucel (hydroxypropylcellulose) (HPC) 100 % of control | [9] 106 % of control | [11] 86 % of control | [10] 101 % of control

NC(=S)N/N=C1/C(=O)c2cccc3cccc1c23
inactive: dose: 75.0 mg/kg/injection, schedule: Q01DX001 (ip), vehicle: other 96 % of control
